{
  "source": "patent US20040191312A1",
  "about": "“5-HT3 receptor agonists as neuroprotectors” (priority 2002, published 2004)",
  "key": {"[1]": {"tested_on": "primary neuron cultures (OGD-induced cell death)", "assay": "LOPAC library screen using the oxygen-glucose deprivation (OGD) assay, ATP content as index of cell viability", "conditions": "for activity at 10 µM: Rattus norvegicus, Primary neuron, read-out: Activity (% Cells Alive)", "procedure": "Primary neuron cultures were prepared as follows: Brain cortices from E18 rat brains were dissected in DPBS without calcium and magnesium. They were digested at 37° C. for 30 min with trypsin. The digestion was stopped by addition of MEM, 10% Fetal Bovine Serum (FBS)and 10% Horse Serum. DNase (10 U/ml) was also added. The tissues were mechanically triturated using a pipette. This step was repeated until all cells were dissociated and then they were filtered through a 70 um Nitrex mesh. The cells were counted and plated in poly ornithine-coated 96-well culture plates at 5×10^5 cells/well in MEM containing 10% HS and 10% FBS. Three days later, the medium was changed to neurobasal-serum free containing B27 and SATO (Sodium selenite 4 μg/ml, transferrrin 100 μg/ml, BSA 100 μg/ml, progesterone 62 μg/ml, putrescine 160 μg/ml). 5-Fluoro-2′deoxyuridine (FdU 30 μM) was added to inhibit the dividing microglia from the cultures. The culture medium was changed every 3 days leaving half volume of the old (conditioned) media and adding half volume of fresh media. All experiments were performed in 11-12 days-old neuronal cultures. The cells were maintained at 37° C. in a 5% CO2 humidified incubator.\nThe compounds from the LOPAC library, obtained from Sigma, were plated in 96-wells at 200 μM (20× the final concentration).\nThe neuronal cultures were pre-incubated with the compounds (10 μM final concentration) for 2 hours. The cells were then subjected to oxygen glucose deprivation (OGD) for 120 min at 37° C. in presence of the compounds of the library. Cultures were placed in an anaerobic chamber (Forma Scientific) and washed two times with balanced salt solution (116 mM NaCl, 5.4 mM KCl, 1 mM NaH2PO4, 1.8 mm CaCl2, 26.2 mM NaHCO3, 0.01 mM glycine, pH=7.4) lacking glucose and aerated with an anaerobic gas mix (85% N2/5% CO2/10% H2) to remove residual oxygen. Control cultures were kept in the original neurobasal media but were submitted to the anaerobic conditions. MK-801 (10 μM), a non competitive NMDA receptor antagonist was used to prevent cell death after OGD caused by activation of the NMDA receptors. To terminate the oxygen glucose deprivation, the cells were removed from the anaerobic chamber and the OGD media was removed and replaced with neurobasal media. The compounds were added back for an additional 20 hours.\nCells were lysed and ATP content was measured as an index for cell viability using a commercially available reagent (Cell Titter Glo from Promega). This assay generates a luminescent signal produced by the luciferase reaction."}, "5-HT3 receptor": {"biological_target": "T1, 5-HT3 receptor (Homo sapiens, UniProt P46098)", "T1 sequence (P46098 24-478)": "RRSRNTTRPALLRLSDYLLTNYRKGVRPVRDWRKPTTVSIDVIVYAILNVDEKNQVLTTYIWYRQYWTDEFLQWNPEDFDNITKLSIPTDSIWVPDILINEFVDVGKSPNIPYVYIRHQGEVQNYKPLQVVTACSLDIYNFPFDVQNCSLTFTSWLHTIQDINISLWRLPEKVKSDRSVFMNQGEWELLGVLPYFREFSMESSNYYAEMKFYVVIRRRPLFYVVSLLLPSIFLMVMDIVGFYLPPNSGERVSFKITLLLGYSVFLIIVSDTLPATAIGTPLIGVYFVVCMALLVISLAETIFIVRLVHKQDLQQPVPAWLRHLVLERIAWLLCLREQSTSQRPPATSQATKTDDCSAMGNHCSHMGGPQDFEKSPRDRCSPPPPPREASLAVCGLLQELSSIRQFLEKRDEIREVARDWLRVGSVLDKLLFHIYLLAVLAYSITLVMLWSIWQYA", "conditions": "known 5-HT3 agonists; van Hooft et al. 1997, Morain et al. 1994; cited from earlier work"}},
  "data": [
    {"compound": "N=C(N)NC(=N)Nc1ccccc1", "note": "[Formula II, N-phenyl-imidocarbonimidicdiamide]", "values": [
      {"measurement": "activity at 10 µM", "setting": "[1]", "value": "67 ± 25", "unit": "%"},
      {"measurement": "EC50", "setting": "5-HT3 receptor", "value": 22, "unit": "µM"}
    ]},
    {"compound": "NC1CCN(c2cccc(Cl)n2)CC1", "note": "[Formula V, 1-(6-chloro-2-pyridinyl)-4-piperidinamine]", "values": [
      {"measurement": "activity at 10 µM", "setting": "[1]", "value": "80 ± 27", "unit": "%"}
    ]},
    {"compound": "CN1CCN(c2ccc3ccccc3n2)CC1", "note": "[Formula IV, 2-(1-(4-methyl)-piperazineyl)quinolinedimaleate]", "values": [
      {"measurement": "activity at 10 µM", "setting": "[1]", "value": "103 ± 30", "unit": "%"}
    ]},
    {"compound": "Cc1[nH]c2ccc(O)cc2c1CCN.O=C(O)/C=C\\C(=O)O", "note": "[Formula III, 2-methyl-5-hydroxytryptaminemaleate]", "values": [
      {"measurement": "Activity (% Cells Alive)", "setting": "[1]; 10 μM compound, 2 h pre-incubation, OGD 120 min, compound added back 20 h, ATP content (Cell Titter Glo)", "value": "106 ± 25", "unit": "%"}
    ]},
    {"compound": "N=C(N)NC(=N)Nc1cccc(Cl)c1", "note": "[Formula I, 1-(m-chlorophenyl)-biguanide]", "values": [
      {"measurement": "activity at 10 µM", "setting": "[1]", "value": "106 ± 6", "unit": "%"},
      {"measurement": "EC50", "setting": "5-HT3 receptor", "value": 0.4, "unit": "µM"}
    ]},
    {"compound": "Cc1[nH]c2ccc(O)cc2c1CCN", "note": "[2-methyl-5-HT, reference compound]", "values": [
      {"measurement": "EC50", "setting": "5-HT3 receptor", "value": "5 to 8", "unit": "µM"}
    ]}
  ]
}
